Assay results from ChEMBL document CHEMBL1127099, “Anticonvulsant activity of glycine-site NMDA antagonists. 2. trans 2-carboxy-4-substituted tetrahydroquinolines” (Bioorg Med Chem Lett, 1993).

Columns and labels:
Mus musculus [1] = test: Tested for the anticonvulsant activity in DBA/2 mice after 30 mins of intraperitoneal administration; assay type: functional; details: ip, 0.5 h
Rattus norvegicus = organism: Rattus norvegicus; test: Tested for the antagonistic potency for blockade of NMDA-induced depolarizations in rat cortical slices; assay type: functional
Glutamate NMDA receptor [2] = test: Tested for the binding affinity at glycine recognition site of the NMDA receptor in rat cortical membranes using radiolabeled [3H]- L-689 560; assay type: cell membranes, Membrane
[3] = Ratio of ED50 values administered intracerebroventricular to that of antagonistic potency (Kb); assay type: functional
Glutamate NMDA receptor [4] = test: Tested for the binding affinity at glycine recognition site of the NMDA receptor in rat cortical membranes using radiolabeled [3H]-L-689,560 560; assay type: cell membranes, Membrane
[5] = Plasma half-life was tested; assay type: ADME, cell-free
[6] = Partition coefficient (logP); assay type: physicochemical; details: octanol/water
Mus musculus [7] = test: Tested for the anticonvulsant activity in DBA/2 mice after 15 mins of intracerebroventricular administration at pH 8.0; assay type: functional

| SMILES | ED50 (Mus musculus [1]) | Kb (Rattus norvegicus) | IC50 (Glutamate NMDA receptor [2]) | Ratio [3] | other results |
| --- | --- | --- | --- | --- | --- |
| O=C(Nc1ccccc1)N[C@H]1C[C@H](C(=O)O)Nc2cc(Cl)cc(Cl)c21 | > 100 mg/kg | 130 nM |  |  |  |
| CN(C(=O)Nc1ccccc1)[C@H]1C[C@H](C(=O)O)Nc2cc(Cl)cc(Cl)c21 |  |  | 9 nM |  |  |
| NC(Cc1ccc(CC(=O)N[C@H]2C[C@H](C(=O)O)Nc3cc(Cl)cc(Cl)c32)cc1)C(=O)O (stereo partly drawn) | 29 mg/kg | 840 nM | 32 nM | 0.6 |  |
| O=C(O)c1cc(=O)c2ccccc2[nH]1 [TRANSTORINE] | > 250 mg/kg | 154000 nM |  |  |  |
| O=C(C[C@H]1C[C@H](C(=O)O)Nc2cc(Cl)cc(Cl)c21)Nc1ccccc1 |  |  |  |  | IC50 (Glutamate NMDA receptor [4]): 19 nM |
| O=[N+]([O-])c1cc([N+](=O)[O-])c2nc(O)c(O)nc2c1 | > 10 mg/kg | 1230 nM |  | >16 |  |
| C[C@]12N[C@H](Cc3ccccc31)c1ccccc12 [DIZOCILPINE] | 0.2 mg/kg | 80 nM |  | 23 |  |
| O=C(O)C[C@H]1C[C@H](C(=O)O)Nc2cc(Cl)cc(Cl)c21 |  |  | 74 nM |  |  |
| COC(=O)[C@H]1C[C@H](NC(=O)Cc2ccc(CN)cc2)c2c(Cl)cc(Cl)cc2N1.Cl | 31.5 mg/kg |  |  |  |  |
| NCc1ccc(CC(=O)N[C@H]2C[C@H](C(=O)O)Nc3cc(Cl)cc(Cl)c32)cc1 | 39 mg/kg | 240 nM | 19 nM | 15 | half-life [5]: 1.83 h |
| O=C(O)c1cc(O)c2c(Cl)cc(Cl)cc2n1 | > 250 mg/kg |  |  |  |  |
| O=C(Cc1ccccc1)N[C@H]1C[C@H](C(=O)O)Nc2cc(Cl)cc(Cl)c21 | 46 mg/kg | 530 nM |  | 9 | IC50 (Glutamate NMDA receptor [4]): 14 nM; logP [6]: 0.55 |
| C/C(=C\C(N)C(=O)O)CP(=O)(O)O (stereo not drawn) [CGP-37849] | 0.8 mg/kg | 200 nM |  | 0.1 | ED50 (Mus musculus [7]): 0.02 nM |
